pEC50: −log10 of the molar value. Read-outs that look alike come from different tables or passages of the source.

For the assay, the target named is T1, Human FXR full length (Homo sapiens, UniProt Q96RI1).
T1 construct: Human FXR full length and RXR full length was obtained from Ronald Evans' laboratory; expressed in transfected cells; host or cells: CV-1 cells
T1 sequence (Q96RI1 1-476 isoform Q96RI1-1): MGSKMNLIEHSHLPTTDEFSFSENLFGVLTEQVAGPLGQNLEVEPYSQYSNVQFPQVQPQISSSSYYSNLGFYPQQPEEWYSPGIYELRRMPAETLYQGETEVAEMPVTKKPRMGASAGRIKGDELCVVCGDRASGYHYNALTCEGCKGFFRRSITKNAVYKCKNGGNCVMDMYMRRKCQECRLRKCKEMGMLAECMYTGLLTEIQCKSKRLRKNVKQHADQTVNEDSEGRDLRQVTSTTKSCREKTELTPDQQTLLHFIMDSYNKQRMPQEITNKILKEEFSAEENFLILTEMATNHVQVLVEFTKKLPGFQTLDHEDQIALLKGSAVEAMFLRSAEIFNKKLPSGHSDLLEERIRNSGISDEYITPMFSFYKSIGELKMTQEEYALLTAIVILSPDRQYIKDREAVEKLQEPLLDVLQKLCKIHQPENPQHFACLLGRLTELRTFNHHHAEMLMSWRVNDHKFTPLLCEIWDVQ
T1 sequence (P19793 1-462 partner): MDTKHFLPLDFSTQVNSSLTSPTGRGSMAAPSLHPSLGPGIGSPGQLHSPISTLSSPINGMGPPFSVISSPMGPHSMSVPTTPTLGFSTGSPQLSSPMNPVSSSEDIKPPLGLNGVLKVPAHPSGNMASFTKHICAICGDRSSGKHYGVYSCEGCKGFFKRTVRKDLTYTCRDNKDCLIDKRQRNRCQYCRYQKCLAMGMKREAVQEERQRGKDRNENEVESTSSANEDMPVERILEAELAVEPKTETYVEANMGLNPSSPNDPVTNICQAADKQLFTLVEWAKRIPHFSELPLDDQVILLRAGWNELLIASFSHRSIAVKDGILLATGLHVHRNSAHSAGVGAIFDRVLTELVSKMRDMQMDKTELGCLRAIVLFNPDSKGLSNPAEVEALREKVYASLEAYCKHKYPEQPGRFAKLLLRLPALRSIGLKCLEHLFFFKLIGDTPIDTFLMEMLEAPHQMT
The assay is described as follows: FXR activity screen, luciferase reporter in transfected CV-1 cells. The class given is cell-based. As for the experimental part: CV-1 cells were grown in DMEM+10% charcoal stripped FCS. Cells were seeded into 384-well plates the day before transfection to give a confluency of 50-80% at transfection. A total of […] DNA containing 0.32 micrograms pCMX-hFXRfl, 0.32 micrograms pCMX-hRXRfl, 0.1 micrograms pCMXβGal, 0.08 micrograms pGLFXRE reporter and 0.02 micrograms pCMX empty vector was transfected per well using FuGene transfection reagent according to the manufacturer's instructions (Roche). Cells were allowed to express protein for 48 hours followed by addition of compound.
Human FXR full length and RXR full length was obtained from Ronald Evans' laboratory and PCR amplification of the hFXR cDNA and the hRXR cDNA was performed. The amplified cDNAs was cloned into the vector pCMX generating the plasmids pCMX-hFXRfl and pCMX-hRXRfl. Ensuing fusions were verified by sequencing. The pCMXMH2004 luciferase reporter contains multiple copies of the GAL4 DNA response element under a minimal eukaryotic promoter (Hollenberg and Evans, 1988). pCMXβGal was generated in the Evans laboratory, Salk Institute.
All compounds were dissolved in DMSO and diluted 1:1000 upon addition to the cells. Compounds were tested in quadruple in concentrations ranging from 0.001 to 100 μM. Cells were treated with compound for 24 hours followed by luciferase assay. Each compound was tested in at least two separate experiments.
Medium including test compound was aspirated and washed with PBS. 50 μL PBS including 1 mM Mg^2+ and Ca^2+ were then added to each well. The luciferase assay was performed using the LucLite kit according to the manufacturer's instructions (Packard Instruments). Light emission was quantified by counting on a Perkin Elmer Envision reader. To measure […] activity 25 μL supernatant from each transfection lysate was transferred to a new 384 microplate. Beta-galactosidase assays were performed in the microwell plates using a kit from Promega and read in a Perkin Elmer Envision reader. The beta-galactosidase data were used to normalize (transfection efficiency, cell growth etc.) the luciferase data.
The activity of a compound is calculated as fold induction compared to an untreated sample. For each compound the efficacy (maximal activity) is given as a relative activity compared to Fexaramine, a FXR agonist. The EC50 is the concentration giving 50% of maximal observed activity. EC50 values were calculated via non-linear regression using GraphPad PRISM (GraphPad Software, San Diego, Calif.).
(In general: In a reporter assay the amount or activity of a reporter protein is the signal.)

The mark [1] stands for this setting: first round, CV-1 cells, 24 hours, read-out: 1st RND EC50.
The mark [2] stands for this setting: second round, CV-1 cells, 24 hours, read-out: 2nd RND EC50.

As for `[2H]C(c1ccc(-c2ccc3c(cnn3C)c2)cc1Cl)N(C(=O)C1CCCCC1)c1cncc(/C=C/C(=O)OC)c1` (stereo not drawn) [NSSK00095], the negative logarithm of the EC50 (pEC50) (usually −log10 of the EC50, conventionally taken in molar units) is 5.85 under setting [1] and 5.82 under setting [2].

Turning to `COC(=O)/C=C/c1cc(F)cc(N(Cc2ccc(-c3ccc4c(cnn4C)c3)cc2Cl)C(=O)c2ccccc2)c1` [NSSK00100], the pEC50 under setting [1] is 5.85 and the pEC50 under setting [2] was 5.74.

As for `COC(=O)/C=C/c1cccc(N(Cc2ccc(-c3ccc(N(C)C)cc3)cc2Cl)C(=O)c2ccccc2)c1` [NSSK00055], the pEC50 under setting [1] was 6.03 and the pEC50 under setting [2] is 5.85.

As for `[2H]C(c1ccc(-c2ccc3c(cnn3C)c2)cc1F)N(C(=O)c1ccccc1)c1cc(F)cc(/C=C/C(=O)OC)c1` (stereo not drawn) [NSSK00039], the negative-log EC50 (pEC50) is 5.81 under setting [1] and 6.06 under setting [2].

For `[2H]C(c1ccc(-c2ccc3c(cnn3C)c2)cc1)N(C(=O)c1ccccc1)c1cncc(/C=C/C(=O)OC)c1` (stereo not drawn) [NSSK00119], the pEC50 reads like this: under setting [1], 6.10; under setting [2], 4.19.

With `COC(=O)/C=C/c1cncc(N(Cc2ccc(-c3ccc(N(C)C)cc3)cc2)C(=O)c2ccccc2)c1` [NSSK00060], the negative logarithm of the EC50 (pEC50) under setting [1] was 5.07 and the negative logarithm of the EC50 (pEC50) under setting [2] is 4.95.

As to `COC(=O)/C=C/c1cncc(N(Cc2ccc(-c3ccc(N(C)C)cc3)cc2Cl)C(=O)c2ccccc2)c1` [NSSK00081], the pEC50 was 4.64 under setting [1] and 4.15 under setting [2].

Consider `[2H]C(c1ccc(-c2ccc(N(C)C)cc2)cc1F)N(C(=O)C1CCCCC1)c1cncc(/C=C/C(=O)OC)c1` (stereo not drawn) [NSSK00030], for which the pEC50 is, setting by setting: under setting [1], 6.18; under setting [2], 6.43.

In the case of `COC(=O)/C=C/c1cncc(N(Cc2cccc3cc4cnn(C)c4c(Cl)c23)C(=O)C2C[C@H]3CC[C@@H]2C3)c1` (stereo partly drawn) [NSSK00022], the negative-log EC50 (pEC50) under setting [1] was 5.49 and the negative-log EC50 (pEC50) under setting [2] is 5.57.

On to `[2H]C(c1ccc(-c2ccc3c(cnn3C)c2)cc1Cl)N(C(=O)[C@@H]1C[C@@H]2CC[C@H]1C2)c1cncc(/C=C/C(=O)OC)c1` (stereo partly drawn) [NSSK00073], for which the pEC50 is 6.92 under setting [1] and 6.84 under setting [2].

For `[2H]C(c1ccc(-c2ccc3c(cnn3C)c2)cc1Cl)N(C(=O)C1CCCCC1)c1cc(F)cc(/C=C/C(=O)OC)c1` (stereo not drawn) [NSSK00016], the pEC50 was 6.55 under setting [1] and 6.42 under setting [2].

In the case of `[2H]C(c1ccc(-c2ccc3c(cnn3C)c2)cc1)N(C(=O)C1CCCCC1)c1cc(F)cc(/C=C/C(=O)OC)c1` (stereo not drawn) [NSSK00096, methyl (E)-3-(3-fluoro-5-(N-((4-(1-methyl-1H-indazol-5-yl)phenyl)methyl-d)cyclohexanecarboxamido)phenyl)acrylate], the pEC50 by setting is: under setting [1], 6.47; (retest, read-out: EC50 (retested)) 6.66; under setting [2], 6.43.

As for `COC(=O)/C=C/c1cncc(N(Cc2cccc3cc4cnn(C)c4cc23)C(=O)[C@@H]2C[C@@H]3CC[C@H]2C3)c1` [NSSK00018], the negative-log EC50 (pEC50) is 6.42 under setting [1] and 6.38 under setting [2].

For `COC(=O)/C=C/c1cccc(N(Cc2cccc3ccc(N(C)C)cc23)C(=O)C2CCCCC2)c1` [NSSK00001], the pEC50 under setting [1] is 7.16 and the negative logarithm of the EC50 (pEC50) under setting [2] was 7.25.

Turning to `[2H]C(c1ccc(-c2ccc(N(C)C)cc2)cc1Cl)N(C(=O)c1ccccc1)c1cncc(/C=C/C(=O)OC)c1` (stereo not drawn) [NSSK00065], the negative logarithm of the EC50 (pEC50) is 5.48 under setting [1] and 5.22 under setting [2].

Take `[2H]C(c1ccc(-c2ccc(N(C)C)cc2)cc1)N(C(=O)[C@@H]1C[C@@H]2CC[C@H]1C2)c1cccc(/C=C/C(=O)OC)c1` (stereo partly drawn) [NSSK00107]: the pEC50 was 6.35 under setting [1] and 6.06 under setting [2].

For the molecule `[2H]C(c1ccc(-c2ccc(N(C)C)cc2)cc1)N(C(=O)c1ccccc1)c1cc(F)cc(/C=C/C(=O)OC)c1` (stereo not drawn) [NSSK00114], the pEC50 is, setting by setting: under setting [1], 6.58; under setting [2], 6.21.

For the molecule `COC(=O)/C=C/c1cncc(N(Cc2ccc(-c3ccc(N(C)C)cc3)cc2)C(=O)[C@@H]2C[C@@H]3CC[C@H]2C3)c1` [NSSK00059], the pEC50 was 5.80 under setting [1] and 5.89 under setting [2].

Regarding `COC(=O)/C=C/c1cc(F)cc(N(Cc2ccc(-c3ccc4c(cnn4C)c3)cc2Cl)C(=O)C2CCCCC2)c1` [NSSK00097], the negative logarithm of the EC50 (pEC50) by setting is: under setting [1], 6.06; under setting [2], 6.14.

`[2H]C(c1ccc(-c2ccc(N(C)C)cc2)cc1)N(C(=O)[C@@H]1C[C@@H]2CC[C@H]1C2)c1cncc(/C=C/C(=O)OC)c1` (stereo partly drawn) [NSSK00026]: the pEC50 by setting is: under setting [1], 6.23; under setting [2], 6.04.

As for `COC(=O)/C=C/c1cc(F)cc(N(Cc2ccc(-c3ccc(N(C)C)cc3)cc2)C(=O)c2ccccc2)c1` [NSSK00068], the negative-log EC50 (pEC50) was 5.24 under setting [1] and 5.13 under setting [2].

Consider `COC(=O)/C=C/c1cc(F)cc(N(Cc2ccc(-c3ccc(N(C)C)cc3)cc2)C(=O)[C@@H]2C[C@@H]3CC[C@H]2C3)c1` [NSSK00102], for which the negative logarithm of the EC50 (pEC50) is 6.60 under setting [1] and 6.48 under setting [2].

Take `COC(=O)/C=C/c1cc(F)cc(N(Cc2ccc(-c3ccc4c(cnn4C)c3)cc2)C(=O)c2ccccc2)c1` [NSSK00058]: the negative logarithm of the EC50 (pEC50) by setting is: under setting [1], 5.92; under setting [2], 5.82.

As for `[2H]C(c1ccc(-c2ccc3c(cnn3C)c2)cc1F)N(C(=O)c1ccccc1)c1cncc(/C=C/C(=O)OC)c1` (stereo not drawn) [NSSK00067], the negative-log EC50 (pEC50) runs as follows: under setting [1], 9.40; under setting [2], 9.70.

`[2H]C(c1ccc(-c2ccc(N(C)C)cc2)cc1Cl)N(C(=O)C1CCCCC1)c1cncc(/C=C/C(=O)OC)c1` (stereo not drawn) [NSSK00032]: the negative logarithm of the EC50 (pEC50) by setting is: under setting [1], 5.59; under setting [2], 5.54.

Regarding `COC(=O)/C=C/c1cc(F)cc(N(Cc2cccc3cc4cnn(C)c4c(F)c23)C(=O)C2C[C@H]3CC[C@@H]2C3)c1` (stereo partly drawn) [NSSK00020], the negative-log EC50 (pEC50) is 6.13 under setting [1] and 6.33 under setting [2].

For `[2H]C(c1ccc(-c2ccc(N(C)C)cc2)cc1)N(C(=O)C1CCCCC1)c1cncc(/C=C/C(=O)OC)c1` (stereo not drawn) [NSSK00062], the pEC50 runs as follows: under setting [1], 6.03; under setting [2], 6.03.

On to `COC(=O)/C=C/c1cc(F)cc(N(Cc2ccc(-c3ccc4c(cnn4C)c3)cc2F)C(=O)c2ccccc2)c1` [NSSK00099], for which the negative-log EC50 (pEC50) is 5.68 under setting [1] and 5.68 under setting [2].

Consider `COC(=O)/C=C/c1cc(F)cc(N(Cc2cccc3cc4cnn(C)c4c(F)c23)C(=O)C2CCCCC2)c1` [NSSK00007], for which the pEC50 was 6.33 under setting [1] and 6.77 under setting [2].

For the molecule `COC(=O)/C=C/c1cc(F)cc(N(Cc2ccc(-c3ccc4c(cnn4C)c3)cc2)C(=O)C2CCCCC2)c1` [NSSK00084], the pEC50 was 5.44 under setting [1] and 5.33 under setting [2].

Regarding `[2H]C(c1ccc(-c2ccc(N(C)C)cc2)cc1)N(C(=O)c1ccccc1)c1cccc(/C=C/C(=O)OC)c1` (stereo not drawn) [NSSK00048], the negative logarithm of the EC50 (pEC50) was 6.42 under setting [1] and 6.45 under setting [2].

The record behind these values is US20190084939A1, “ANALOGS OF FEXARAMINE AND METHODS OF MAKING AND USING” (Salk Institute for Biological Studies, priority 2014, published 2019).
